Experimental data reported in US8188078B2 (Sanofi-Aventis, priority 2007, dated 2012).

Assays:
MET = biological target: T1, MET (Homo sapiens, UniProt P08581); test: Test C: inhibition of the autophosphorylation of MET, ELISA technique (pppY1230, 1234, 1235), MKN45 cells; assay type: cell-based
T1 construct: endogenous in cells; host or cells: MKN45 cells
In short: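 MKN45 cells adhered 24 h, then treated 1 h with compound at 6 concentrations in duplicate, final range 10000 to 30 nM. Lysates assayed by phospho-MET (pY1230/1234/1235) sandwich ELISA with HRP chromogen read at 450 nm.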

T1 sequence (P08581 25-1390): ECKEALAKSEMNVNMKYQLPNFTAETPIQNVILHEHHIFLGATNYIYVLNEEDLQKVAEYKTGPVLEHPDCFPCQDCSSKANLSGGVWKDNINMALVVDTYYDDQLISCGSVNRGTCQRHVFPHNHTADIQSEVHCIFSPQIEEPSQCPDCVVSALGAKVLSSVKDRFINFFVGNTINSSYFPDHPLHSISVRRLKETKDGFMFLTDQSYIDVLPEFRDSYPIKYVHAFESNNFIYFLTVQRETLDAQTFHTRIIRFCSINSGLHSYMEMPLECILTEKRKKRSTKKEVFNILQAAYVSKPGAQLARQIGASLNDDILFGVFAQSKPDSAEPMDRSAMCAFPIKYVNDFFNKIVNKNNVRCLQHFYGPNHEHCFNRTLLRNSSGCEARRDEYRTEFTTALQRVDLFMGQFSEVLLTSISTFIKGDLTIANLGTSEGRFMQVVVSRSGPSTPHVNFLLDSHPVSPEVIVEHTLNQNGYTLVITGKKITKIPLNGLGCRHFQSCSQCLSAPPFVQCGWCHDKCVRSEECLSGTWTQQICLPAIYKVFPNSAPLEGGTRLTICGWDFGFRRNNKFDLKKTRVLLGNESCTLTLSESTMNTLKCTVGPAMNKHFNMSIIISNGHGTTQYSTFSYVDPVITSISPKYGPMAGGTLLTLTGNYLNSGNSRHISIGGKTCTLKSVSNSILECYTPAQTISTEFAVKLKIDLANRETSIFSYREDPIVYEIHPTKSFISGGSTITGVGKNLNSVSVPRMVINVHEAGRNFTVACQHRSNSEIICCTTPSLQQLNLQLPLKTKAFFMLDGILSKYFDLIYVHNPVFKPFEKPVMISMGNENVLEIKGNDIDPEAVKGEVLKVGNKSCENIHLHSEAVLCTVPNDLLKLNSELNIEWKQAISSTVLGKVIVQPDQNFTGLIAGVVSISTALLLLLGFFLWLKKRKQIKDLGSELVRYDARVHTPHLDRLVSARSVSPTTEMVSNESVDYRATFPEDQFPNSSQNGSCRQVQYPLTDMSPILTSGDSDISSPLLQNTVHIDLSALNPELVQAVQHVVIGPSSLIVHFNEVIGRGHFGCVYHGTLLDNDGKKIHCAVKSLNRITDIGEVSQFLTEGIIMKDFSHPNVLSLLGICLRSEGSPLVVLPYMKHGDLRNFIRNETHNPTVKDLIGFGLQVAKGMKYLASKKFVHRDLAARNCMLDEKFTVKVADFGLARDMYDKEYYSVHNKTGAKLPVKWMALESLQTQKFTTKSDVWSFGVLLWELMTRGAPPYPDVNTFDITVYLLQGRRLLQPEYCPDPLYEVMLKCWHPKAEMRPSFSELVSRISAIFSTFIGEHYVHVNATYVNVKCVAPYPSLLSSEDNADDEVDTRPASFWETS

CC(Oc1ccc2nc(NC(=O)NCCN3CCOCC3)[nH]c2c1)c1c(Cl)cccc1Cl (stereo not drawn) [Example 2, 1-{6-[1-(2,6-dichlorophenyl)ethoxy]-1H-benzimidazol-2-yl}-3-(2-morpholin-4-ylethyl)urea]
IC50 (MET): 500 to 10000 nM | melting point: 215 to 220 °C

CC(Oc1ccc2nc(NC(=O)NCCN3CCOCC3)[nH]c2c1)c1cc(F)ccc1Cl (stereo not drawn) [Example 3, 1-{6-[1-(2-chloro-5-fluorophenyl)ethoxy]-1H-benzimidazol-2-yl}-3-(2-morpholin-4-ylethyl)urea]
IC50 (MET): 500 to 10000 nM | melting point: 210 °C

CC(Oc1cc2[nH]c(NC(=O)NCCN3CCOCC3)nc2cc1F)c1c(Cl)cccc1Cl (stereo not drawn) [Example 5, 1-{6-[1-(2,6-dichlorophenyl)ethoxy]-5-fluoro-1H-benzimidazol-2-yl}-3-(2-morpholin-4-ylethyl)urea]
IC50 (MET): 500 to 10000 nM | melting point: 210 to 216 °C

O=C(NCCN1CCOCC1)Nc1nc2ccc(OCc3c(Cl)cccc3Cl)cc2s1 [Example 10, 1-{6-[(2,6-dichlorobenzyl)oxy]-1,3-benzothiazol-2-yl}-3-(2-morpholin-4-ylethyl)urea]
IC50 (MET): 500 to 10000 nM | melting point: 268 to 271 °C

CC(Oc1ccc2nc(NC(=O)NCCN3CCOCC3)sc2c1)c1c(Cl)cccc1Cl (stereo not drawn) [Example 17, 1-{6-[1-(2,6-dichlorophenyl)ethoxy]-1,3-benzothiazol-2-yl}-3-(2-morpholin-4-ylethyl)urea]
IC50 (MET): 500 to 10000 nM | melting point: 165 to 168 °C

O=C(NCCN1CCOCC1)Nc1nc2cc(F)c(OCc3c(Cl)cccc3Cl)cc2s1 [Example 21, 1-{6-[(2,6-dichlorobenzyl)oxy]-5-fluoro-1,3-benzothiazol-2-yl}-3-(2-morpholin-4-ylethyl)urea]
IC50 (MET): 500 to 10000 nM | melting point: 206 °C

CC(Oc1ccc2nc(NC(=O)NCCN3CCOCC3)sc2c1)c1c(Cl)ccc(F)c1Cl (stereo not drawn) [Example 24, 1-{6-[1-(2,6-dichloro-3-fluorophenyl)ethoxy]-1,3-benzothiazol-2-yl}-3-(2-morpholin-4-ylethyl)urea]
IC50 (MET): < 500 nM | melting point: 110 °C

Cc1ccc(F)c(C(C)Oc2ccc3nc(NC(=O)NCCN4CCOCC4)sc3c2)c1Cl (stereo not drawn) [Example 28, 1-{6-[1-(2-chloro-6-fluoro-3-methylphenyl)ethoxy]-1,3-benzothiazol-2-yl}-3-(2-morpholin-4-ylethyl)urea]
IC50 (MET): 500 to 10000 nM | melting point: 165 to 170 °C

CC(Oc1cc2sc(NC(=O)NCCN3CCOCC3)nc2cc1F)c1c(Cl)cccc1Cl (stereo not drawn) [Example 29, 1-{6-[1-(2,6-dichlorophenyl)ethoxy]-5-fluoro-1,3-benzothiazol-2-yl}-3-(2-morpholin-4-ylethyl)urea]
IC50 (MET): < 500 nM | melting point: 200 to 205 °C

CC(Oc1cc2sc(NC(=O)NCCN3CCOCC3)nc2cc1F)c1c(Cl)ccc(F)c1Cl (stereo not drawn) [Example 31, 1-{6-[1-(2,6-dichloro-3-fluorophenyl)ethoxy]-5-fluoro-1,3-benzothiazol-2-yl}-3-(2-morpholin-4-ylethyl)urea]
IC50 (MET): < 500 nM | melting point: 226 to 228 °C

CC(Oc1ccc2nc(NC(=O)NCCN3CCC(Cc4ccccc4)CC3)sc2c1)c1c(Cl)ccc(F)c1Cl (stereo not drawn) [Example 34, 1-[2-(4-benzylpiperidin-1-yl)ethyl]-3-{6-[1-(2,6-dichloro-3-fluorophenyl)ethoxy]-1,3-benzothiazol-2-yl}urea]
IC50 (MET): 500 to 10000 nM | melting point: 133 to 139 °C

CC(Oc1ccc2nc(NC(=O)NCCN3CCN(Cc4ccccc4)CC3)sc2c1)c1c(Cl)ccc(F)c1Cl (stereo not drawn) [Example 35, 1-[2-(4-benzylpiperazin-1-yl)ethyl]-3-{6-[1-(2,6-dichloro-3-fluorophenyl)ethoxy]-1,3-benzothiazol-2-yl}urea]
IC50 (MET): 500 to 10000 nM | melting point: 125 to 139 °C

CC(Oc1ccc2nc(NC(=O)NCCN3CCN(C(=O)OC(C)(C)C)CC3)sc2c1)c1c(Cl)ccc(F)c1Cl (stereo not drawn) [Example 36, 1,1-dimethylethyl 4-{2-[({6-[1-(2,6-dichloro-3-fluorophenyl)ethoxy]-1,3-benzothiazol-2-yl}carbamoyl)amino]ethyl}piperazine-1-carboxylate]
IC50 (MET): 500 to 10000 nM | melting point: 87 °C

CC(Oc1ccc2nc(NC(=O)NCCN3CCNCC3)sc2c1)c1c(Cl)ccc(F)c1Cl.O=C(O)C(F)(F)F (stereo not drawn) [Example 37, 1-{6-[1-(2,6-Dichloro-3-fluorophenyl)ethoxy]-1,3-benzothiazol-2-yl}-3-(2-piperazin-1-ylethyl)urea trifluoroacetate]
IC50 (MET): < 500 nM | melting point: 138 to 169 °C

CC(Oc1ccc2nc(NC(=O)NCCCN3CCN(Cc4ccccc4)CC3)sc2c1)c1c(Cl)ccc(F)c1Cl (stereo not drawn) [Example 49, 1-[3-(4-benzylpiperazin-1-yl)propyl]-3-{6-[1-(2,6-dichloro-3-fluorophenyl)ethoxy]-1,3-benzothiazol-2-yl}urea]
IC50 (MET): < 500 nM

CC(Oc1ccc2nc(NC(=O)NCCN3CCCCC3)sc2c1)c1c(Cl)ccc(F)c1Cl (stereo not drawn) [Example 50, 1-{6-[1-(2,6-dichloro-3-fluorophenyl)ethoxy]-1,3-benzothiazol-2-yl}-3-(2-piperidin-1-ylethyl)urea]
IC50 (MET): < 500 nM

CC(Oc1ccc2nc(NC(=O)NCCN3CCCC3)sc2c1)c1c(Cl)ccc(F)c1Cl (stereo not drawn) [Example 51, 1-{6-[1-(2,6-dichloro-3-fluorophenyl)ethoxy]-1,3-benzothiazol-2-yl}-3-(2-pyrrolidin-1-ylethyl)urea]
IC50 (MET): < 500 nM

CC(Oc1ccc2nc(NC(=O)NCCC3CCCN3C)sc2c1)c1c(Cl)ccc(F)c1Cl (stereo not drawn) [Example 53, 1-{6-[1-(2,6-dichloro-3-fluorophenyl)ethoxy]-1,3-benzothiazol-2-yl}-3-[2-(1-methylpyrrolidin-2-yl)ethyl]urea]
IC50 (MET): < 500 nM

CC(Oc1ccc2nc(NC(=O)NCCN3CCCCCC3)sc2c1)c1c(Cl)ccc(F)c1Cl (stereo not drawn) [Example 54, 1-(2-azepan-1-ylethyl)-3-{6-[1-(2,6-dichloro-3-fluorophenyl)ethoxy]-1,3-benzothiazol-2-yl}urea]
IC50 (MET): < 500 nM

CC(Oc1ccc2nc(NC(=O)NCCN3CCN(C)CC3)sc2c1)c1c(Cl)ccc(F)c1Cl (stereo not drawn) [Example 55, 1-{6-[1-(2,6-dichloro-3-fluorophenyl)ethoxy]-1,3-benzothiazol-2-yl}-3-[2-(4-methylpiperazin-1-yl)ethyl]urea]
IC50 (MET): < 500 nM

CC(Oc1ccc2nc(NC(=O)NCCN3C(C)CCCC3C)sc2c1)c1c(Cl)ccc(F)c1Cl (stereo not drawn) [Example 56, 1-{6-[1-(2,6-dichloro-3-fluorophenyl)ethoxy]-1,3-benzothiazol-2-yl}-3-[2-(2,6-dimethylpiperidin-1-yl)ethyl]urea]
IC50 (MET): < 500 nM

CC(Oc1ccc2nc(NC(=O)NCc3ccncc3)sc2c1)c1c(Cl)ccc(F)c1Cl (stereo not drawn) [Example 57, 1-{6-[1-(2,6-dichloro-3-fluorophenyl)ethoxy]-1,3-benzothiazol-2-yl}-3-(pyridin-4-ylmethyl)urea]
IC50 (MET): 500 to 10000 nM

CC(Oc1ccc2nc(NC(=O)NCc3ccccn3)sc2c1)c1c(Cl)ccc(F)c1Cl (stereo not drawn) [Example 58, 1-{6-[1-(2,6-dichloro-3-fluorophenyl)ethoxy]-1,3-benzothiazol-2-yl}-3-(pyridin-2-ylmethyl)urea]
IC50 (MET): 500 to 10000 nM

CC(Oc1ccc2nc(NC(=O)NCc3cccnc3)sc2c1)c1c(Cl)ccc(F)c1Cl (stereo not drawn) [Example 59, 1-{6-[1-(2,6-dichloro-3-fluorophenyl)ethoxy]-1,3-benzothiazol-2-yl}-3-(pyridin-3-ylmethyl)urea]
IC50 (MET): 500 to 10000 nM

CC(Oc1ccc2nc(NC(=O)NCCN3CCOCC3)sc2c1)c1c(F)ccc(F)c1F (stereo not drawn) [Example 60, 1-(2-morpholin-4-ylethyl)-3-{6-[1-(2,3,6-trifluorophenyl)ethoxy]-1,3-benzothiazol-2-yl}urea]
IC50 (MET): 500 to 10000 nM | melting point: 187 °C

CC(Oc1ccc2nc(NC(=O)NCCN3CCOCC3)sc2c1)c1c(F)ccc(Cl)c1Cl (stereo not drawn) [Example 61, 1-{6-[1-(2,3-dichloro-6-fluorophenyl)ethoxy]-1,3-benzothiazol-2-yl}-3-(2-morpholin-4-ylethyl)urea]
IC50 (MET): < 500 nM | melting point: 200 °C

O=C(NCCN1CCOCC1)Nc1nc2ccc(OC(c3c(Cl)cccc3Cl)C(F)(F)F)cc2s1 (stereo not drawn) [Example 64, 1-{6-[1-(2,6-dichlorophenyl)-2,2,2-trifluoroethoxy]-1,3-benzothiazol-2-yl}-3-(2-morpholin-4-ylethyl)urea]
IC50 (MET): 500 to 10000 nM | melting point: 150 to 160 °C

CC(Oc1ccc2nc(NC(=O)CCCN3CCOCC3)sc2c1)c1c(Cl)ccc(F)c1Cl (stereo not drawn) [Example 65, N-{6-[1-(2,6-dichloro-3-fluorophenyl)ethoxy]-1,3-benzothiazol-2-yl}-4-(morpholin-4-yl)butanamide]
IC50 (MET): 500 to 10000 nM | melting point: 141 to 145 °C

CC(Oc1ccc2nc(NC(=O)C3CC3)sc2c1)c1c(Cl)ccc(F)c1Cl (stereo not drawn) [Example 66, N-{6-[1-(2,6-dichloro-3-fluorophenyl)ethoxy]-1,3-benzothiazol-2-yl}cyclopropanecarboxamide]
IC50 (MET): < 500 nM | melting point: 194 to 199 °C

CC(Oc1cc2sc(NC(=O)CCCN3CCCC3)nc2cc1F)c1c(Cl)ccc(F)c1Cl (stereo not drawn) [Example 68, N-{6-[1-(2,6-dichloro-3-fluorophenyl)ethoxy]-5-fluoro-1,3-benzothiazol-2-yl}-4-(pyrrolidin-1-yl)butanamide]
IC50 (MET): < 500 nM | melting point: 153 to 157 °C

CCN(CC)CCCOC(=O)Nc1nc2cc(F)c(OC(C)c3c(Cl)ccc(F)c3Cl)cc2s1 (stereo not drawn) [Example 70]
IC50 (MET): 500 to 10000 nM

CC(Oc1ccc2nc(NC(=O)OCCN3CCOCC3)sc2c1)c1c(Cl)ccc(F)c1Cl (stereo not drawn) [Example 74]
IC50 (MET): < 500 nM

CC(Oc1cc2sc(NC(=O)NCCN3CCNC(=O)C3)nc2cc1F)c1c(Cl)ccc(F)c1Cl (stereo not drawn) [Example 130, 1-{6-[1-(2,6-dichloro-3-fluorophenyl)ethoxy]-5-fluoro-1,3-benzothiazol-2-yl}-3-[2-(3-oxopiperazin-1-yl)ethyl]urea]
IC50 (MET): < 500 nM

{6-[1-(2,6-dichloro-3-fluorophenyl)ethoxy]-5-fluoro-1,3-benzothiazol-2-yl}2-(pyrrolidin-1-yl)ethyl carbamate [Example 73]
IC50 (MET): 500 to 10000 nM
